The source made the active and inactive calls. No cut-off for these calls is given here.

The experiment has as its system Lemna aequinoctialis. The experiment is described as follows: Induction of flowering in Lemna paucicostata 151 after 10 days. Type of experiment: functional, organism-based.
On to `CC/C=C\C[C@@H]1[C@H](CC(=O)[C@H](O)CCCCCCCC(=O)O)O[C@]2(O)CC13C(=CC2=O)N(C)C[C@@H]3O`, for which the outcome was Active.
For the compound `CC/C=C\C[C@@H]1[C@H](CC(=O)[C@@H](O)CCCCCCCC(=O)O)O[C@]2(O)CC13C(=CC2=O)N(C)C[C@@H]3O`, the outcome was Active.
Take `CCCCC[C@@H]1[C@H](CC(=O)CCCCCCCCC(=O)O)O[C@]2(O)CC13C(=CC2=O)NC[C@@H]3O`: the result was inactive.
As for `CCCCC[C@@H]1[C@H](CC(=O)C(O)CCCCCCCC(=O)O)O[C@]2(O)CC13C(=CC2=O)NC[C@@H]3O` (some centres not stated), the entry is “Active”; as for `CC/C=C\C[C@@H]1[C@H](CC(=O)CCCCCCCCC(=O)O)O[C@]2(O)CC13C(=CC2=O)NC[C@@H]3O`, “Active”.
Then `CC/C=C\C[C@@H]1[C@H](CC(=O)[C@@H](O)CCCCCCCC(=O)OC)O[C@]2(O)CC13C(=CC2=O)NC[C@@H]3O`, with “Active”.
Turning to `CC/C=C\C[C@@H]1[C@H](CC(=O)[C@H](O)CCCCCCCC(=O)OC)O[C@]2(O)CC13C(=CC2=O)NC[C@@H]3O`, the result was Active.
